One molecule from patent US5571701A, “Antibiotic, balhimycin, a process for its production and its use as pharmaceutical” (priority 1990, dated 1996) can be followed below.

For one data set, the system named is P. vulaaris. Kind of data set: Minimum inhibitory concentration (MIC), antibacterial activity. In kind it is cell-based.
In the next data set the test system is Ps. aeruaingu. Described as above. In kind it is cell-based.
Data set [1] is described as follows: Solubility (physico-chemical properties). Format: physicochemical. Particulars: as its trifluoroacetate salt; solvents in which soluble.

The structures appear in SMILES notation. Where a name gives a salt, the structure may show the parent alone. Where only a bound is given, the exact number is not on record here.

One may read the MIC as the lowest concentration that inhibits growth of the organism. The low end stands for greater potency, the high end for weaker potency. As to `CNC(CC(C)C)C(=O)NC1C(=O)NC(CC(N)=O)C(=O)NC2C(=O)NC3C(=O)NC(C(=O)NC(C(=O)O)c4cc(O)cc(O)c4-c4cc3ccc4O)C(OC3C[C@](C)(N)C(=O)C(C)O3)c3ccc(c(Cl)c3)Oc3cc2cc(c3OC2O[C@H](CO)C(O)[C@H](O)C2O)Oc2ccc(cc2Cl)C1O` (stereo partly drawn) [Balhimycin trifluoroacetate, Balhimycin], the MIC with P. vulaaris and with Ps. aeruaingu was greater than 100 µg/mL throughout. The Solubility result in data set [1] was “Water, dimethylsulfoxide”.
